Our source for the ring closure, yield of all isomers and IC50 values is patent publication US20240415819A1, “MACROCYCLIC COMPOUNDS AS PROTEASOME SUBUNIT BETA TYPE-5 INHIBITORS” (Lead Discovery Center GmbH, priority 2021, published 2024).

The conditions of data set [1]: from Cc1ccc(OCCC2CCCNC2)cc1CNC(=O)[C@H](CCc1ccccc1)NC(=O)[C@H](CC(=O)O)NC(=O)OCc1ccccc1; amide bond; HATU; DMF; 252.0 mM; 25.0 °C; 2 steps.
Another data set has as its system B cell. Nature of the data set: B cell diff. (Table 4, method not given). It counts as cell-based.
The next data set relates to PBMC. In words: PBMC IL 17 stim. (Table 4, method not given). It counts as cell-based.
The test system of the next data set is Karpas cells. Nature of the data set: Glo assay of Karpas cells (Table 3; ProteasomeGlo plating scheme). It counts as cell-based. Particulars: read-out: Pglo Karpas. An excerpt:
Inhibition is indicated as IC50 [nM] (“-”=not measured). […] • Chymotrypsin-Like Cell-Based Proteasome-GloTM Assay (Promega; […]) • Cell culture 384-well plates (Greiner BioOne; 781080) • Dispensing cassette, MultiDrop Standard tube dispensing cassette (Thermo Scientific; 24072670) • DPBS (Pan BioTech; P04-36500) • Cell culture 384-well plates (Greiner BioOne; 781080) • CPD source plate: diamond-shape plate (Labcyte; LP-0200) • Intermediate plate (Labcyte; P-05525) [table] • a. Remove the plates with cells from the incubator. • b. Take all the plates including the compound plate, intermediate plate and Staurosporine plate to the ECHO. • c. Click on “Open” in the ECHO software and select the protocol “QLI5_25ul_30 uM-Grenier”. • d. Follow the on-screen prompts and instructions once you click “Start” to insert the compound plate, intermediate plate and destination plates. • e. Change the final number of destination plates on the program. • f. Follow the on-screen prompts and instructions once you click “Start” to load the Staurosporine and destination plates. • g. Once all the compounds, DMSO and Staurosporine have been transferred, place the destination plates in a wet tissue box. • h. Place the destination plates back into the incubator and incubate at 37° C., 5% CO2 for 105 minutes. • i. Re-seal all the compound+Stauro diamond and intermediate plates and store in the dark. Chymotrypsin like ProteasomeGlo Assay • 1. Thaw the components of the ProteasomeGlo assay at room temperature including the ProteasomeGlo Buffer, the lyophilized Luciferin Detection Reagent and the Suc-LLVY-Glo Substrate. • 2. Reconstitute the Luciferin Detection Reagent in the amber coloured bottle by adding 50 ml of the ProteasomeGlo Buffer. • 3. Vortex the Suc-LLVY-Glo Substrate briefly to reconstitute the Substrate well. • 4. Spin down the Substrate and add 250 μl of the Substrate to the reconstituted Luciferin Detection Reagent from step 2. • 5. Briefly vortex the amber bottle with the mix to prepare a homogenous solution. • 6. Place the mix prepared in step 5 to sit at room temperature for 60 minutes. • 7. After 60 minutes, pipette 25 μl of the mix from step 5 into all wells with the cells. • 8. Shake the plates for 2-5 minutes to ensure the complete mixing of the ProteasomeGlo reagent with the cells. • 9. Leave the plates in the dark for 10-15 minutes. • 10. Measure the luminescence read-out using the Viktor and the protocol “Luminescence_384Well_0.2 sec”. (Note: The Protoeasome-GloTM Reagent (combined Proteasome-GloTM Substrate, Proteasome-GloTM Buffer and Luciferin Detection Reagent) can be stored at 4° C. or -20° C. for 1 month with minimal loss of activity.)

Where two headings read alike, the source gives them in different places. Where only a bound is given, the exact number is not on record here.

In data set [1], `Cc1ccc2cc1CNC(=O)[C@H](CCc1ccccc1)NC(=O)[C@@H](NC(=O)OCc1ccccc1)CC(=O)N1CCCC(CCO2)C1` (stereo partly drawn) [Compound 7, benzyl ((9S,12S)-5^4-methyl-8,11,14-trioxo-9-phenethyl-4-oxa-7,10-diaza-1(3,1)-piperidina-5(1,3)-benzenacyclotetradecaphane-12-yl)carbamate] registered a ring closure, yield of all isomers of 68.9%.

In the case of `Cc1ccc2cc1CNC(=O)[C@H](CCc1ccccc1)NC(=O)[C@@H](NC(=O)C(C)(C)C)CC(=O)N1CCCC(CCO2)C1` (stereo partly drawn) [Compound 27, N-((9S,12S)-5^4-methyl-8,11,14-trioxo-9-phenethyl-4-oxa-7,10-diaza-1(3,1)-piperidina-5(1,3)-benzenacyclotetradecaphane-12-yl)pivalamide], the IC50 in the data set on B cell (B-cell) and with PBMC was below 100 nM in each case.

In the case of `Cc1ccc2cc1CNC(=O)[C@H](CCc1ccccc1)NC(=O)[C@@H](NC(=O)CC(C)(C)C)CC(=O)N1CCCC(CCO2)C1` (stereo partly drawn) [Compound 28, 3,3-dimethyl-N-((9S,12S)-5^4-methyl-8,11,14-trioxo-9-phenethyl-4-oxa-7,10-diaza-1(3,1)-piperidina-5(1,3)-benzenacyclotetradecaphane-12-yl)butanamide], in the data set on Karpas cells, the IC50 is below 100 nM.

As for `Cc1ccc2cc1CNC(=O)[C@H](CCc1ccccc1)NC(=O)[C@@H](NC(=O)Cc1ccccc1)CC(=O)N1CCCC(CCO2)C1` (stereo partly drawn) [Compound 29, N-((9S,12S)-5^4-methyl-8,11,14-trioxo-9-phenethyl-4-oxa-7,10-diaza-1(3,1)-piperidina-5(1,3)-benzenacyclotetradecaphane-12-yl)-2-phenylacetamide], the IC50 with B cell (B-cell) and with PBMC was below 100 nM throughout.

For the compound `Cc1ccc2cc1CNC(=O)C(CCc1ccccc1)NC(=O)C(NC(=O)CCc1ccccc1)CC(=O)N1CCCC(CCO2)C1` [Compound 30, N-((9S,12S)-5^4-methyl-8,11,14-trioxo-9-phenethyl-4-oxa-7,10-diaza-1(3,1)-piperidina-5(1,3)-benzenacyclotetradecaphane-12-yl)-3-phenylpropanamide], the IC50 in the data set on B cell was below 100 nM.

Compound `CC(=O)N[C@H]1CC(=O)N2CCCC(CCOc3ccc(C)c(c3)CNC(=O)[C@H](CCc3ccccc3)NC1=O)C2` (stereo partly drawn) [Compound 33, N-((9S,12S)-5^4-methyl-8,11,14-trioxo-9-phenethyl-4-oxa-7,10-diaza-1(3,1)-piperidina-5(1,3)-benzenacyclotetradecaphane-12-yl)acetamide] returned an IC50 in the data set on B cell (B-cell) below 100 nM.

For `Cc1ccc2cc1CNC(=O)[C@H](CCc1ccccc1)NC(=O)[C@@H](Nc1ncccn1)CC(=O)N1CCCC(CCO2)C1` (stereo partly drawn) [Compound 34, (9S,12S)-5^4-methyl-9-phenethyl-12-(pyrimidin-2-ylamino)-4-oxa-7,10-diaza-1(3,1)], in the data set on B cell (B-cell), the IC50 is below 100 nM.

As to `Cc1ccc2cc1CNC(=O)[C@H](CCc1ccccc1)NC(=O)[C@@H](NC1COC1)CC(=O)N1CCCC(CCO2)C1` (stereo partly drawn) [Compound 35, (9S,12S)-5^4-methyl-12-(oxetan-3-ylamino)-9-phenethyl-4-oxa-7,10-diaza-1(3,1)-piperidina-5(1,3)-benzenacyclotetradecaphane-8,11,14-trione], the IC50 in the data set on B cell (B-cell) is below 100 nM.

On to `Cc1ccc2cc1CNC(=O)[C@H](CCc1ccccc1)NC(=O)[C@@H](NC(=O)Cc1ccccc1C)CC(=O)N1CCCC(CCO2)C1` (stereo partly drawn) [Compound 373, N-((9S,12S)-5^4-methyl-8,11,14-trioxo-9-phenethyl-4-oxa-7,10-diaza-1(3,1)-piperidina-5(1,3)-benzenacyclotetradecaphane-12-yl)-2-(o-tolyl)acetamide], for which the IC50 with Karpas cells is below 100 nM.
